The values that follow come from ChEMBL document CHEMBL3507680, “University of Dundee, Gates Library screen for HepG2 cell viability”.

This data set is described as follows: Human HepG2 cell viability assay in 384 well format. In kind it is toxicity, cell-based. Further details: dose 125 nL, time 70.5 hour; concentration not given beside the values. The following applies: HepG2 cells, read-out: Inhibition.
In the case of `Cc1nnc(N2CCCC(C(=O)c3cccc(Cl)c3)C2)o1` (stereo not drawn), the cytotoxicity at 70.5 h is -3.19%. The same measure for `CC(C)c1nccn1CC(=O)Nc1ccnn1C(C)C(C)C` (stereo not drawn): -16%; for `CCNc1ncc(C(=O)N[C@H]2CC[C@H](n3cnnc3)CC2)cn1`: -1.33%; for `CNC(=O)[C@@H](c1ccccc1OC)N1CCC[C@H]1C(=O)N1CCC1`: -5.76%.

Regarding `COc1ccccc1-n1nc(-c2ccco2)n(CC(=O)NC2CC2)c1=O`, the cytotoxicity at 70.5 h turned out to be 10.2%. In the case of `Cc1nc(C)n(CC2CCCN2CC(=O)NC2CCOCC2)n1` (stereo not drawn), the cytotoxicity at 70.5 h was found to be 2.61%. For `O=C(c1ccc(-n2cccn2)nc1)N1CCCN(c2cccnn2)CC1` the value was -14.8%. For `Cc1cc(CN2CCN(Cc3cnc4c(c3)c(C)nn4C)CC2)on1` the value was -6.72%. `Cc1nc(CSc2nc(=O)ccn2C(C)C)cs1`: the cytotoxicity at 70.5 h was -6.6%.

Regarding `CN1CCC(CNC(=O)NCc2ccc(N(C)C)cc2)CC1`, the cytotoxicity at 70.5 h is -2.97%. The same measure for `O=C(c1ccccn1)N1CCC(Nc2cccnn2)CC1`: 2.46%; for `CCCNC(=O)CCNC(=O)c1ccccc1N1CCOCC1`: -4.62%; for `Cc1cc(F)ccc1N1CCCC(NC(=O)CCCn2ccnc2)C1` (stereo not drawn): -26%. For `CC(C)c1nc(CN(C)Cc2cnc(N3CCOCC3)nc2)no1` the value was -6.44%; for `c1cc(CN2CCC3(CC2)COC(COCC2CC2)C3)cs1` (stereo not drawn), -6.27%. The same measure for `CN(C)C(=O)N1CCO[C@@H]2CC(COCc3cccnc3)C[C@H]21` (stereo partly drawn): -1.44%.

As for `Cc1cc(C)n(CC2CCCN2C(=O)c2ccc(C(N)=O)cn2)n1` (stereo not drawn), the cytotoxicity at 70.5 h is -1.95%. The same measure for `CCN(Cc1ccc2c(c1)OCO2)S(=O)(=O)N(C)C(C)C`: -1.76%; for `CC(C)=CCN1CCN(Cc2nccn2C)[C@H]2CS(=O)(=O)C[C@H]21`: -7.09%. For `Cc1nn(C)c(C)c1C1COCCN1C(=O)Cc1cccc(F)c1` (stereo not drawn) the value was 12.5%. For `Cc1ccc(-c2noc(CN3CC(n4cc(C)cn4)C3)n2)cc1` the value was -0.527%; for `Cc1nnn2c1COCC(CNC(=O)c1cnoc1C)C2` (stereo not drawn), 0.126%; for `CC(C)(C(=O)NCc1ccc(C#N)cc1)n1cc(Br)cn1`, -2.27%.

As to `COc1ccc(N(C(=O)c2cnc(C)cn2)C(C)C)cc1F`, the cytotoxicity at 70.5 h is -3.96%. The same measure for `Cc1ccoc1C(=O)N1C[C@H]2CCC[C@@]2(COCc2ccncc2)C1`: 5.44%.

Regarding `CC(OCC1CC1)C(=O)N1CCCN(c2nc3ccccc3[nH]2)CC1` (stereo not drawn), the cytotoxicity at 70.5 h was -3.86%. The same measure for `CCc1cnc(CCNS(C)(=O)=O)s1`: -6.67%; for `Cc1ccc(CN2CCC3(CC(=O)N(c4ccc5c(c4)OCO5)C3)C2)o1` (stereo not drawn): -6.86%; for `O=C(c1cccnc1-c1ccoc1)N1C[C@H]2CC[C@@H]1C2`: -10.4%. The same measure for `Cc1cc(C(=O)N2CCC3(C2)CN(c2cccnc2)C(=O)CN3C)[nH]n1` (stereo not drawn): -10.2%. For `COCCn1cc(C(=O)N2CCCC2c2cc(C)on2)c2ccccc21` (stereo not drawn) the value was 1.11%. In the case of `Cn1cc(C(=O)N2CC[C@@]3(O)CCN(C(=O)C4CCCC4)C[C@H]3C2)cn1`, the cytotoxicity at 70.5 h was -10.4%. For `O=C(O)CCc1cc2n(n1)CCCN(C(=O)c1ccc(Cl)s1)C2` the value was -22.4%. On to `Cn1cc(CN2CCCC3(CCN(c4nncs4)C3)C2)cn1` (stereo not drawn), for which the cytotoxicity at 70.5 h is -0.185%.

On to `O=C(Nc1ccccc1)C1=NOC2(CCCNC2)C1` (stereo not drawn), for which the cytotoxicity at 70.5 h amounted to 18.4%.

Consider `CC(C)CN(Cc1ccc(O)c(C(=O)O)c1)Cc1ccccn1`, for which the cytotoxicity at 70.5 h amounted to 5.47%. The same measure for `Cc1c(C(=O)NC2CCCOC2)nnn1-c1ccc(Cl)cc1F` (stereo not drawn): -0.806%. The same measure for `O=C1CC(c2ccncc2)C2(CCN(Cc3cccnc3)CC2)N1` (stereo not drawn): -6.24%; for `Cc1nnc(SCC(=O)N2CCc3[nH]nc(C4CCC4)c3C2)o1`: 8.24%; for `CC(C)Cc1nc(CN2CCCC2Cn2cncn2)no1` (stereo not drawn): -7.43%. Turning to `N#Cc1ccc(NCCC2CCN(CC(F)(F)F)CC2)nc1`, the cytotoxicity at 70.5 h stood at 2.24%. The same measure for `CN(C)CCO[C@@H]1CC[C@H]2[C@H]1OCCN2C(=O)c1ccc(F)cc1`: -1.79%. The same measure for `O=C(CC1CCC2(CC1)CCN(Cc1ccncc1)CC2)N1CCCC1`: 6.54%. The same measure for `CC(=O)N1CCO[C@@H]2CN(S(=O)(=O)C3CC3)CC[C@@H]2C1`: -0.0787%; for `COCCN1C(=O)CC(N2CCN(c3ccc(OC)cc3)CC2)C1=O` (stereo not drawn): -7.1%. Turning to `N#Cc1cccnc1NCc1ccc(S(=O)(=O)NC2CC2)cc1`, the cytotoxicity at 70.5 h is -17.8%. The same measure for `O=c1n(Cc2ncccn2)nc(C2CCNCC2)n1-c1ccccc1`: -2.01%. For `Cc1cnccc1NCCn1ccnc1C1CCOC1` (stereo not drawn) the value was -3.31%; for `Cc1ccc(CN2CC[C@H]3C[C@@H](c4nc(C5CC5)cs4)O[C@@H]3C2)o1`, -7.46%. The same measure for `N#CC1(NC(=O)CNCCn2cccn2)CCCCC1`: -1.06%. As to `COCCN1CCC(NCc2c(C(C)C)nn(C)c2N(C)C)CC1`, the cytotoxicity at 70.5 h is 24.2%.

Consider `COCCN1CCO[C@@H]2CN(Cc3ccc(C)s3)C[C@@H]2C1`, for which the cytotoxicity at 70.5 h was -2.59%. For `CC(C)NC(=O)c1nnn(-c2cccc(F)c2)c1C1CC1` the value was -6.18%; for `Cc1cccc(C(=O)NC(C)CN2CCCC2=O)n1` (stereo not drawn), 21%. For `COc1cc(N2CCC3(CC2)CCN(c2cccnc2)C3=O)ncn1` the value was -9.9%. The same measure for `O=C(c1cnc(C2CC2)nc1O)N1CCN(Cc2ccccc2F)CC1`: 0.38%; for `Cc1csc(N2CCCN(C(=O)CCNc3ncccn3)CC2)n1`: -0.695%; for `CSc1nccc(N2CCC(NCCN3CCOCC3)CC2)n1`: -6.94%. On to `COc1ccc(C[C@H]2CN(c3nnc(C)s3)CC[C@H]2OC)cc1`, for which the cytotoxicity at 70.5 h was -10.2%. As to `Cc1oncc1C(=O)N1CCC2(C1)CN(c1cccnc1)C(=O)CN2C` (stereo not drawn), the cytotoxicity at 70.5 h is -0.201%.

As for `Cc1c(Br)cccc1C(=O)NCc1cnn(C)c1`, the cytotoxicity at 70.5 h was 2.04%. For `CS(=O)(=O)NC[C@]12COC[C@H]1CN(C(=O)C1CCCCC1)C2` the value was -8.19%; for `Cc1cc(C)nc(CN(C)C(=O)c2cccc(CCC(C)(C)O)c2)c1`, -4.1%; for `O=C1COC2(CCN(CC3CC3)CC2)CN1c1cncnc1`, -13.3%. The same measure for `CN(C)C(=O)[C@H]1CCS(=O)(=O)[C@@H]2CN(c3ncccn3)C[C@H]12`: -4.18%; for `c1nc(N2CCCC2Cn2cncn2)c2sccc2n1` (stereo not drawn): -4.84%; for `O=C(N1CCCC1)N1CCN(c2ccc(Cl)nn2)C(=O)C1`: -7.98%. The same measure for `Cc1ccc(C(N)c2cccc(S(C)(=O)=O)c2)cc1` (stereo not drawn): 4.98%; for `Cc1n[nH]c(C2CN(C(=O)c3csnn3)CCO2)n1` (stereo not drawn): -11.9%; for `CCCC(=O)NC(C)(C)Cc1ccccc1OC`: -12.8%.

As for `CCCc1nc(C(=O)NC(COC)c2ccnn2C)cs1` (stereo not drawn), the cytotoxicity at 70.5 h was -10.8%. For `COCC1CC2(CCN(c3ccccn3)CC2)CN1C(C)C` (stereo not drawn) the value was -11.6%; for `CN(C)C(C(=O)NCC1(Cn2cccn2)CC1)c1ccc(F)cc1` (stereo not drawn), 3.72%; for `CC(C)OCCC(=O)Nc1c(-c2ccc(F)cc2)ncn1C`, 2.71%. Consider `COc1cccc2cc(CNCc3ccnc(N4CCCCC4)c3)oc12`, for which the cytotoxicity at 70.5 h is 3.87%. The same measure for `COCCO[C@H]1CCN(C(=O)c2ccsc2)[C@H]1Cc1ccncc1`: -9.1%.

Regarding `Cn1nc(C(=O)N2CC(Oc3nc4c(Cl)cccc4s3)C2)ccc1=O`, the cytotoxicity at 70.5 h was -8.11%.

Consider `c1ccc(CN2CCn3c(Cn4cncn4)cnc3C2)nc1`, for which the cytotoxicity at 70.5 h was -10.2%.

As to `CS(=O)(=O)N[C@@H]1CCO[C@]2(CCN(CC3CCOCC3)C2)C1`, the cytotoxicity at 70.5 h was -5.05%.

For `COCCN(Cc1cnn(C)c1)CC1CCOC1` (stereo not drawn), the cytotoxicity at 70.5 h is -6.85%. The same measure for `Cc1cnc(CN(C)C2CCN(CCn3cc(C#N)cn3)C2)o1` (stereo not drawn): 7.37%. For `O=C(CSc1ccc2c(c1)OCCO2)NS(=O)(=O)c1ccccc1F` the value was -5.01%. For `Cc1occc1C(=O)N1C[C@@H]2CCCO[C@@H]2[C@H](N(C)Cc2ccco2)C1` the value was -0.88%; for `COCCN(Cc1cccc(O)c1)CC1CC1`, 29.9%; for `O=C1CCCN1Cc1nnc2n1CCN(Cc1ccoc1)CC2`, 30%. `O=C(C1=CCCC1)N1C[C@@H]2COC[C@]2(COc2ncccc2F)C1`: the cytotoxicity at 70.5 h stood at 6.81%.

On to `CCN(Cc1ccncc1)C(=O)C1COc2c(cccc2OC)C1` (stereo not drawn), for which the cytotoxicity at 70.5 h worked out at 6.05%.

Turning to `O=C(NCC1(CO)CC1)c1ccccc1Br`, the cytotoxicity at 70.5 h was -8.75%. For `Nc1nc(N)c2c(n1)OC1(CCN(C(=O)CC3CCCNC3)CC1)C2` (stereo not drawn) the value was 1.11%; for `Cc1cccc(S(=O)(=O)NCC2CCN(c3cnccn3)CC2)c1`, -10.1%; for `c1nc2c(c(NC3CCC3)n1)CCNCC2`, -2.44%. The same measure for `CC(C)N(C)Cc1ncn2c1CN(S(=O)(=O)c1cccs1)CCC2`: 13%; for `O=C(C1CC1)N1CCC(c2nc(O)c3c(n2)CN(C2CCCC2)CC3)C1` (stereo not drawn): 9.71%; for `CCN(CC)C(=O)c1cc(-c2cccc(Cl)c2)no1`: -5.28%. For `CCOc1cc(F)ccc1NS(=O)(=O)c1cc(C)c(C(=O)O)s1` the value was -8.13%; for `CC1(C)CC(N(Cc2ccncc2)Cc2cccnc2)CC(C)(C)N1`, 27.1%. With `COC(=O)N1CCCC(C(=O)NCCc2c[nH]c3cc(C)ccc23)C1` (stereo not drawn), the cytotoxicity at 70.5 h is -10.8%. The same measure for `COc1ncccc1C(=O)NC1(c2cccc(F)c2)CCOCC1`: 22.6%.
